Reference: patent publication US20150322033A1, “ANTIBACTERIAL AGENT” (priority 2012, published 2015)
In brackets after ≈: the same amount, converted by molar mass. Read-outs that look alike come from different tables or passages of the source.

Assays:
S. aureus Mu50 NR1-1 = assay: MIC by broth microdilution, S. aureus Mu50 NR1-1; format: cell-based; conditions: Staphylococcus aureus, MU50NR11; Example 3, Table 13; read-out: MIC (mg/L) Mu50 NR1-1 (S80F, w)
Procedure: MIC values of the flavones and quinolone for the strains were measured in the same manners as those of Example 1, except that S. aureus Mu50 NR-1 was also used as Staphylococcus aureus in addition to S. aureus FDA209P and S. aureus Mu50, cell suspensions of the strains were prepared.
S. aureus Mu50 NR1-1 mentioned in Table 13 is a strain selected stepwise from the clinically isolated S. aureus Mu50 strain with deoxynybomycin, and it has a topoisomerase IV encoded by parC in which a […] (see, Hiramatsu K. et al., J. Antimicrob. Agents, 2012, June; 39 (6), 478-85).
In Table 13, the descriptions in the parentheses after the strains indicate the mutated amino acid residue and its position, as represented by (the mutation of topoisomerase IV resulting from the mutation of parCand the mutation of DNA gyrase resulting from the mutation of gyrA). The character “w” means wild-type, representing without mutation.

GyrA(wt) + GyrB(wt) = molecular target: T1, GyrA(wt) + GyrB(wt) (Staphylococcus aureus, UniProt P20831); assay: DNA cleavage assay with GyrA(wt) and GyrB(wt); format: biochemical
T1 construct: made in house; host or cells: E. coli BL21(DE3)
Excerpt: The gene sequence encoding the wild-type GyrA of Staphylococcus aureus (henceforth also referred to as “GyrA(wt)”) shown as SEQ ID NO: 1 was cloned into the plasmid pMAL-c2 (produced by New England Biolabs) (the resultant is henceforth also referred to as “pMAL-c2-gyrA”).
The gene sequence encoding the wild-type GyrB of Staphylococcus aureus (henceforth also referred to as “GyrB(wt)”) shown as SEQ ID NO: 2 was cloned into the plasmid pMAL-c2 (produced by New England Biolabs) (the resultant is henceforth also referred to as “pMAL-c2-gyrB”).
E. coliBL21(DE3) (produced by Invitrogen) was transformed with pMAL-c2-gyrA mentioned above, with pMAL-c2-gyrB mentioned above, or with pMAL-c2-SAGAmut84 containing a mutant gyrA encoding the amino acid sequence of GyrA(wt) in which serine residue at the 84th position from the amino terminus is substituted with a leucine residue (see, Hiramatsu K., Igarashi M., Morimoto Y, Baba T., Umekita M., Akamatsu Y., Int. J. Antimicrob. Agents, 2012 June; 39(6), 478-85). To the culture medium of the resulting transformed Escherichia coli, 1 mM […] (produced by Wako Pure Chemical Industries) was added to induce expression of maltose-binding GyrA(wt), maltose-binding GyrB(wt), or maltose-binding mutant GyrA(S84L), and the bacterium was cultured overnight at 25° C. After completion of the culture, the cells were collected, and suspended in a buffer (20 mM Tris-HCl (pH 8.0), 200 mM sodium chloride, 1 mM ethylenediaminetetraacetic acid (EDTA), 1 mM dithiothreitol (DTT)), a protein extracting reagent (10× BugBuster (registered trademark), produced by Novagen) in a volume of 1/10 of the volume of the buffer, and 2.5 μL/10 mL of the buffer of Benzonase (registered trademark) nuclease (produced by Novagen) were added, the mixture was left standing at 25° C. for 30 minutes, and the cells were disrupted and lysed to obtain a disrupted cell suspension containing the maltose-binding GyrA(wt), maltose-binding GyrB(wt), or maltose-binding mutant GyrA(S84L).
Then, each disrupted cell suspension mentioned above was added to a column filled with an amylose resin covalently bound with maltose (produced by Novagen). A buffer (20 mM Tris-HCl (pH 8.0), 200 mM sodium chloride, 1 mM EDTA) containing 10 mM maltose was added to the column to elute the maltose-binding GyrA(wt), maltose-binding GyrB(wt), and maltose-binding mutant GyrA(S84L).
To each eluate, 4 units/1 mL of the eluate of protease (Factor Xa, produced by Amersham) was added, and the mixture was left standing at 25° C. for 3 hours and 30 minutes to cleave the maltose-binding proteins, GyrA(wt), GyrB(wt), and mutant GyrA(S84L) from the maltose-binding GyrA(wt), maltose-binding GyrB(wt), and maltose-binding mutant GyrA(S84L).
Then, GyrA(wt), GyrB(wt), and mutant GyrA(S84L) were concentrated by using an ultrafiltration unit (YM-50 Filter Unit, produced by Millipore).
The concentrated GyrA(wt), GyrB(wt), and mutant GyrA(S84L) were each suspended in a buffer (35 mM Tris-HCl (pH 7.5), 24 mM potassium chloride, 6 mM magnesium chloride, 1.8 mM spermidine, 0.36 mg/mL bovine serum albumin, 5 mM DTT, 50 volume % glycerol) at a concentration of 1 μg/μL for GyrA(wt), 2 μg/μL for GyrB(wt), or 1 μg/μL for mutant GyrA(S84L).
A substrate plasmid DNA, pTWV228 (0.4 μg, produced by Takara Bio), and levofloxacin (LVFX) or apigenin were added to a buffer (35 mM Tris-HCl (pH 7.5), 24 mM potassium chloride, 6 mM magnesium chloride, 1.8 mM spermidine, 0.36 mg/mL bovine serum albumin, 5 mM DTT), and 0.15 μL of the enzyme solution of GyrA(wt) and […] of the enzyme solution of GyrB(wt) were added to the mixture to prepare a reaction mixture in a total volume of 20
Levofloxacin was added at a final concentration of 0, 0.5, 1, 2, 4, 8, 16, or 32 μg/mL.
The aforementioned reaction solution was left standing at 25° C. for 30 minutes to allow the reaction. […]

Compound	MIC (S. aureus Mu50 NR1-1)	Ratio of cleaved DNA (%) (GyrA(wt) + GyrB(wt); 2 μg/mL, Table 14)	Ratio of substrate plasmid DNA (%) (GyrA(wt) + GyrB(wt); 2 μg/mL, Table 14)	Ratio of cleaved DNA (%) (GyrA(wt) + GyrB(wt); 4 μg/mL, Table 14)	Ratio of substrate plasmid DNA (%) (GyrA(wt) + GyrB(wt); 4 μg/mL, Table 14)	Ratio of cleaved DNA (%) (GyrA(wt) + GyrB(wt); 8 μg/mL, Table 14)	Ratio of substrate plasmid DNA (%) (GyrA(wt) + GyrB(wt); 8 μg/mL, Table 14)	Ratio of cleaved DNA (%) (GyrA(wt) + GyrB(wt); 16 μg/mL, Table 14)	Ratio of substrate plasmid DNA (%) (GyrA(wt) + GyrB(wt); 16 μg/mL, Table 14)	Ratio of cleaved DNA (%) (GyrA(wt) + GyrB(wt); 32 μg/mL, Table 14)	Ratio of substrate plasmid DNA (%) (GyrA(wt) + GyrB(wt); 32 μg/mL, Table 14)	also measured
C[C@H]1COc2c(N3CCN(C)CC3)c(F)cc3c(=O)c(C(=O)O)cn1c23 [Levofloxacin, levofloxacin, reference compound]	1 mg/L (≈ 2.77 µM)	58%	42%	61%	39%	64%	36%	70%	30%	67%	33%	Ratio of cleaved DNA (%) (GyrA(wt) + GyrB(wt); 0.5 μg/mL, Table 14): 32%; Ratio of substrate plasmid DNA (%) (GyrA(wt) + GyrB(wt); 0.5 μg/mL, Table 14): 68%; Ratio of cleaved DNA (%) (GyrA(wt) + GyrB(wt); 1 μg/mL, Table 14): 43%; Ratio of substrate plasmid DNA (%) (GyrA(wt) + GyrB(wt); 1 μg/mL, Table 14): 57%; Ratio of cleaved DNA (%) (GyrA(wt) + GyrB(wt); 4 μg/mL, Table 18): 73%; Ratio of substrate plasmid DNA (%) (GyrA(wt) + GyrB(wt); 4 μg/mL, Table 18): 27%; IC50 (GyrA(wt) + GyrB(wt); Example 4, Table 14, from ratio of cleaved DNA, read-out: IC50 (μg/mL) GyrA(wt) + GyrB(wt) (converted)): 5.53 µM
O=c1cc(-c2ccc(O)cc2)oc2cc(O)cc(O)c12 [No. 7, 4′,5,7-Trihydroxyflavone]	> 128 mg/L	34%	66%	35%	65%	36%	64%	35%	65%	40%	60%	Ratio of cleaved DNA (%) (GyrA(wt) + GyrB(wt); 64 μg/mL, Table 14): 43%; Ratio of substrate plasmid DNA (%) (GyrA(wt) + GyrB(wt); 64 μg/mL, Table 14): 57%; inhibitory activity against the wild-type DNA gyrase (GyrA(wt) + GyrB(wt); FIG. 1 and 2): did not exhibit any inhibitory activity; IC50 (GyrA(wt) + GyrB(wt); IC50 (μg/mL) GyrA(wt) + GyrB(wt), Example 4, Table 14, from ratio of cleaved DNA): > 474 µM; IC50 (GyrA(wt) + GyrB(wt); IC50 GyrA(wt) and GyrB(wt), value in μM): > 474 µM
